From patent US20080050387A1, “Non-Androgen Dependent Roles for Androgen Receptor and Non-Androgen Related Inhibitors of Androgen Receptor” (priority 2003, published 2008)

How the values were obtained:
[1] = tested on: AR N/C interaction; test: Reconstituted AR transcription assay (AR N/C interaction) in PC-3 cells; type: cell-based, human; settings: 10 nM DHT, MMTV-LUC
Method: (§1) PC-3, CWR22R, and LNCaP cell lines were maintained in […] supplemented with 10% fetal calf serum (FCS). Transient transfection for luciferase assays was carried out in 24-well plates (5×10^4 cells per well) using SuperFect as described previously (Lin, H. K., et al., Embo J 21:4037-48 (2002)). DNA mixtures in transfection assay were indicated in each figure. The total amount of transfected DNA was kept constant (1 μg) by adding the corresponding amounts of empty expression plasmids. After transfection, cells were cultured in RPMI-1600 supplemented with 5% charcoal-stripped FCS in the presence or absence of 10 nM dihydrotestosterone (DHT) for 18 h. Luciferase assays were performed as previously described (Yang, L., et al., J Biol Chem 278:16820-7 (2003)). In Western blotting assays, CWR22R or LNCaP cells were transfected by electroporation using 5×10^6 cells/0.4 ml of RPMI medium containing 2% FCS plus 9 μg of the indicated plasmids. 1 μg of EGFP expression vector was used for transfection efficiency. Electroporation was performed at 250 V and 950 μF using Gene Pulser II (Bio-Rad)

[2] = tested on: AR; test: Mammalian two-hybrid assay hRad9 / AR in PC-3 cells; type: cell-based, human; settings: 10 nM DHT, positive control
Method: as §1
Target sequence in this assay (P10275 with tags, fused parts or gaps DEL79-80/DUP473-473): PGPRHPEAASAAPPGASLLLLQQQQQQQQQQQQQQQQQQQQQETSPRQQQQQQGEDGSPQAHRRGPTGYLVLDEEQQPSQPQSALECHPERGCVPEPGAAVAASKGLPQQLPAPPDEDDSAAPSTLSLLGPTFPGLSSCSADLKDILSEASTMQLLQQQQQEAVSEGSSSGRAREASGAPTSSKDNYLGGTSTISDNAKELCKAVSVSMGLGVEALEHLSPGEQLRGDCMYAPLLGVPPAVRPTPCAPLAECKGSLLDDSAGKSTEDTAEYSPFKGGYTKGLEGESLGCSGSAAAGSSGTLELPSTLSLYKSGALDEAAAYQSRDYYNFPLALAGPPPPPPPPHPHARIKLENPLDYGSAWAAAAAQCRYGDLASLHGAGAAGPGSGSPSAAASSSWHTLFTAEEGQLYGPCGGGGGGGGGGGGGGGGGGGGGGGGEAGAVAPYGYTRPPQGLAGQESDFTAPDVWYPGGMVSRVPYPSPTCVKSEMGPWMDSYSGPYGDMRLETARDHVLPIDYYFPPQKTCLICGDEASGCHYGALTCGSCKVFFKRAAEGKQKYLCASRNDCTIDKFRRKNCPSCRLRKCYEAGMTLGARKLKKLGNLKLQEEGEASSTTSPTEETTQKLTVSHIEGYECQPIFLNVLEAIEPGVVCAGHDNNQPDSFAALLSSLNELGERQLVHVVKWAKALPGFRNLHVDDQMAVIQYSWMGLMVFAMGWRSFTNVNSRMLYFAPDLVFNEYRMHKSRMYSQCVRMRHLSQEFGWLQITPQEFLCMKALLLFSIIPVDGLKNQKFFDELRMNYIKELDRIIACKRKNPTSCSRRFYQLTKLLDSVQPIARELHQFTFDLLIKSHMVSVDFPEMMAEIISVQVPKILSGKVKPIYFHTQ

[3] = tested on: vitamin D receptor (VDR); test: Mammalian two-hybrid assay hRad9 / VDR; type: cell-based; settings: PC-3 cells
Method: as §1

[4] = tested on: AR (DBD-LBD, LBD, DBD); test: Yeast two-hybrid / liquid β-gal assay hRad9 fragment / AR domains; type: cell-based, human; settings: AH109 yeast cells
Text: The DBD and LBD of AR cDNA was amplified and was cloned into the NdeI and BamHI site of pGBKT7 (Clontech). Yeast strain AH109 was transformed with the vector encoding GAL4 DBD-AR-DBD-LBD fusion and was mated with yeast strain Y187 pretransformed with the human ovary […] cDNA library (Clontech). The yeast clones were selected following the manufacturer's instruction. The positive clones were confirmed by clone lift assay and purified plasmids were retransformed into yeast strain AH109 with bait plasmids. The interaction specificity was further confirmed by liquid […] assay.

[5] = tested on: estrogen receptor α (ERα); test: ERα transcriptional activity ERE-LUC in PC-3 cells with hRad9; type: cell-based; settings: cognate ligand
Method: as §1

[6] = tested on: estrogen receptor α (ERα); test: Mammalian two-hybrid assay hRad9 / ERα; type: cell-based; settings: PC-3 cells, presence of estrogen
Method: as §1, with “After transfection, cells were cultured in RPMI-1600 supplemented with 5% charcoal-stripped FCS in the presence or absence of 10 nM dihydrotestosterone (DHT) for 18 h.” left out

[7] = tested on: vitamin D receptor (VDR); test: VDR transcriptional activity rCyp24-LUC in PC-3 cells with hRad9; type: cell-based; settings: cognate ligand
Method: as §1

[8] = tested on: AR; test: In vitro GST pull-down assay GST-hRad9 / AR domains; type: binding, human
Method: The N-terminus (N), DBD, LBD, and DBD-LBD of AR were in vitro translated in the presence of [^35S] methionine using T7 polymerase and the coupled transcription/translation kit (Promega). pGEX-KG-hRad9 plasmids expressing GST-hRad9 fusion protein were transformed into BL21 (DE3) bacteria strain. 0.4 mM isopropyl-o-D-thiogalactopyranoside was added into LB medium containing transformed bacteria when the OD600 reached 0.5. Bacteria were further cultured in 30° C. for 3 h and lysed by 4 cycles of freezing-thawing in NETN buffer (20 mM Tris/pH 8.0, 0.5% NP-40, 100 mM NaCl, 6 mM MgCl2, 1 mM EDTA, 1 mM DTT, 8% glycerol, and 1 mM PMSF). The GST-hRad9 fusion proteins were purified with glutathione-beads in 4° C. Labeled proteins of AR mutants were incubated with equal amounts of GST-hRad9 in binding buffer (50 mM Hepes, 100 mM NaCl, 20 mM Tris-Cl/pH 8.0, 0.1% Tween 20, 10% glycerol, 1 mM dithiothreitol, 0.5 mM phenylmethysulfonyl fluoride, 1 mM NaF, and 0.4 mM sodium vanadate) with or without 10 nM DHT at 4° C. for 2 h. The beads were then washed with NETN buffer 4 times, resuspended in SDS-polyacrylamide loading buffer, and resolved on 10% SDS-polyacrylamide gel electrophoresis followed by autoradiograhy.

[9] = tested on: AR; test: AR transactivation MMTV-LUC assay in PC-3 cells with hRad9; type: cell-based, human; settings: MMTV-LUC, 10 nM DHT
Method: as §1
Target sequence in this assay (P10275 with tags, fused parts or gaps DEL79-80/DUP473-473): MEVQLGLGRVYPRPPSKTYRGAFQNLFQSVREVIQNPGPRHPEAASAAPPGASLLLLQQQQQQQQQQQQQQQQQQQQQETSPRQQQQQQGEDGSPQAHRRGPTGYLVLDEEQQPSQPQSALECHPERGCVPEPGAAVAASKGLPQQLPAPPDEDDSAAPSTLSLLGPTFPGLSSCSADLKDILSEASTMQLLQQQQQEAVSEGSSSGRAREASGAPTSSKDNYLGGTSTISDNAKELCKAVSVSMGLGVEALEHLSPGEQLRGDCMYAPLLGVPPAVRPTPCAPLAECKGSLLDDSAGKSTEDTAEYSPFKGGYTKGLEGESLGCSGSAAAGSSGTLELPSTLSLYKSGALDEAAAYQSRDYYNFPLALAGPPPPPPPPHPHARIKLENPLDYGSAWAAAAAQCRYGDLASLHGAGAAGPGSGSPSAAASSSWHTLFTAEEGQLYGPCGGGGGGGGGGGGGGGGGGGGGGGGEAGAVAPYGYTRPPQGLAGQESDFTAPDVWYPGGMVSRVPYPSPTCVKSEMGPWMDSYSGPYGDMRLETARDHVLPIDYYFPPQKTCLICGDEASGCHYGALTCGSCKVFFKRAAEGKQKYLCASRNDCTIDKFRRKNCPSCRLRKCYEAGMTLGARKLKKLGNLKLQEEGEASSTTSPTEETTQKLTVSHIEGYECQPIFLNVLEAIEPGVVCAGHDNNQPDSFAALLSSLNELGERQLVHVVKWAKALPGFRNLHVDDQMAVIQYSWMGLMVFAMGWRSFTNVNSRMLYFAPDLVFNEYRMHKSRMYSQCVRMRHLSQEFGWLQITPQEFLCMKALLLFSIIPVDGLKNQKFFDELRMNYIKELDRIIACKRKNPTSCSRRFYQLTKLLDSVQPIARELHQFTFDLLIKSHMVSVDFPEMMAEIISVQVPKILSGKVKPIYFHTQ

[10] = tested on: PSA expression in LNCaP cells; test: DHT-mediated induction of PSA protein in LNCaP cells with hRad9; type: cell-based, human; settings: 10 nM DHT
Method: as §1

Sequence of estrogen receptor α (ERα) (P03372 whole entry, species assumed): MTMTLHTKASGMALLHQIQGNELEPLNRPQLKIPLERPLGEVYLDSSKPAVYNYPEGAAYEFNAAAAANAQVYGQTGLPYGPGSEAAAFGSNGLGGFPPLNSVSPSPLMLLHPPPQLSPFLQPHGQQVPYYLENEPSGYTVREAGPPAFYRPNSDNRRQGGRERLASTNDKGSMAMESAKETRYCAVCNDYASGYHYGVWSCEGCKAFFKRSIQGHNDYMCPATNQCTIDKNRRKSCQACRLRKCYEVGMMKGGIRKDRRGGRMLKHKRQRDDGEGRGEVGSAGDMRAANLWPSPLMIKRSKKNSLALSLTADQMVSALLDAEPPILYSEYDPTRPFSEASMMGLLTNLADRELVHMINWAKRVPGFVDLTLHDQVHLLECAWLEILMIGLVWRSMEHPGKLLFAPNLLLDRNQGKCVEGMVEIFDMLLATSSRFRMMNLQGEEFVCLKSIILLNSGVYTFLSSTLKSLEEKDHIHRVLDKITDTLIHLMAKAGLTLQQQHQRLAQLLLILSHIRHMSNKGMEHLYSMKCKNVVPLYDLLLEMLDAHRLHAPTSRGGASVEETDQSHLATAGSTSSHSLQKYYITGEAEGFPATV
Sequence of vitamin D receptor (VDR) (P11473 whole entry, species assumed): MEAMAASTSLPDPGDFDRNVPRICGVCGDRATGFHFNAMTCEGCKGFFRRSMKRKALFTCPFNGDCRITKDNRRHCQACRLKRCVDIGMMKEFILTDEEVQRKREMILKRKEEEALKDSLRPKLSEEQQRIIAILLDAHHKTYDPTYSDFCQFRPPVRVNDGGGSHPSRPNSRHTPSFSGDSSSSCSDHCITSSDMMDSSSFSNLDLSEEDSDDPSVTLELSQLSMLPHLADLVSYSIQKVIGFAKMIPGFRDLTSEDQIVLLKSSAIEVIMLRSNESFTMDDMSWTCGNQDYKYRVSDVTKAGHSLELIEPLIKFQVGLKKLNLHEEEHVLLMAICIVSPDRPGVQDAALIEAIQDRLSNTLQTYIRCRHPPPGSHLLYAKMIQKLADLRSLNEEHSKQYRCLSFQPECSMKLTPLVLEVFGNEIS
Sequence of AR (DBD-LBD, LBD, DBD) (P10275 558-624): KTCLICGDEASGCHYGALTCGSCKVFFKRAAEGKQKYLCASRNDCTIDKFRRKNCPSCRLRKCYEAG
Sequence of AR N/C interaction (P10275 557-920): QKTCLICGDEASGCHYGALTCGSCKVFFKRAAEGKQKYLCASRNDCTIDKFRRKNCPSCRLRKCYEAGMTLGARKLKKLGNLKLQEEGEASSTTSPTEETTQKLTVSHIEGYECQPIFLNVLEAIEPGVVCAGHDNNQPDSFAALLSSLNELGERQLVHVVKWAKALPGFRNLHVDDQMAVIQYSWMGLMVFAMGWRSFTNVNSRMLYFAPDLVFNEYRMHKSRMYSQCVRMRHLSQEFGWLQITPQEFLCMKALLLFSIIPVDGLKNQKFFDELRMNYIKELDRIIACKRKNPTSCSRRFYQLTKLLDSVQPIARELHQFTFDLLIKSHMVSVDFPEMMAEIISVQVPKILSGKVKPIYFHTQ

HPTHSSRLWELLMEATPTM [GAL4-D30 peptide, reference compound]
interaction between AR N- and C-terminus [1]: blockage | DHT-dependent interaction with VP16-AR [2]: 350 fold

hRad9: human checkpoint protein of the Rad family (SEQ ID NO:7), corepressor of AR
interaction with VDR [3]: no interaction | interaction with GAL4-AR-DBD [4]: did not interact | ER transcriptional activity [5]: little inhibitory effect | interaction with ERα [6]: no interaction | VDR transcriptional activity [7]: little inhibitory effect | interaction with AR LBD and AR-DBD-LBD [8]: interacted specifically | interaction with N-terminus of AR (aa. 1-556) and DBD alone [8]: Neither the N-terminus of AR (aa. 1-556) nor the DBD alone adhered | transcriptional activity of AR [9]: decreased | DHT-mediated induction of PSA [10]: potently inhibited
